Laboratory results: patent publication US4918105A, “Novel compounds with collagenase-inhibiting activity, a process for their preparation and pharmaceutical compositions in which these compounds are present” (SA Laboratoire Roger Bellon, priority 1987, dated 1990)
Like-named read-outs stand apart in the source and are kept apart here.

Legend:
[1] = biological target: ACE (Homo sapiens, UniProt P12821); experiment: Specificity of the inhibition: ACE; assay type: biochemical; conditions: for inhibition at 10 µM: 10^-5 M; for inhibition at 0.1 µM: 10^-7 M
Protocol: (§1) The specificity of the inhibition was measured by studying several other enzymes, including metalloporteases other than collagenase.

[2] = biological target: T1, Carboxypeptidase A (Bos taurus, UniProt P00730); experiment: Specificity of the inhibition: carboxypeptidase A; assay type: biochemical; conditions: for inhibition at 10 µM: 10^-5 M; for inhibition at 0.1 µM: 10^-7 M
T1 sequence (P00730 111-419): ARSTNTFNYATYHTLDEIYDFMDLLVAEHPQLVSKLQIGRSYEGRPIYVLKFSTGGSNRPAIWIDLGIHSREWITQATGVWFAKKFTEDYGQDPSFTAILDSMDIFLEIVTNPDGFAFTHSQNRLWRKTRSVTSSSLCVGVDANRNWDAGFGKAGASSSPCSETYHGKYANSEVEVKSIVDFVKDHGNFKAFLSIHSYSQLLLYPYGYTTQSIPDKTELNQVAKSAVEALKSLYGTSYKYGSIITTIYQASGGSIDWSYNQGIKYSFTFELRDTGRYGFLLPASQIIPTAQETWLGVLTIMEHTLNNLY
Protocol: as §1

[3] = biological target: T2, Carboxypeptidase B (Sus scrofa, UniProt P09955); experiment: Specificity of the inhibition: carboxypeptidase B; assay type: biochemical; conditions: for inhibition at 10 µM: 10^-5 M; for inhibition at 0.1 µM: 10^-7 M
T2 sequence (P09955 111-416): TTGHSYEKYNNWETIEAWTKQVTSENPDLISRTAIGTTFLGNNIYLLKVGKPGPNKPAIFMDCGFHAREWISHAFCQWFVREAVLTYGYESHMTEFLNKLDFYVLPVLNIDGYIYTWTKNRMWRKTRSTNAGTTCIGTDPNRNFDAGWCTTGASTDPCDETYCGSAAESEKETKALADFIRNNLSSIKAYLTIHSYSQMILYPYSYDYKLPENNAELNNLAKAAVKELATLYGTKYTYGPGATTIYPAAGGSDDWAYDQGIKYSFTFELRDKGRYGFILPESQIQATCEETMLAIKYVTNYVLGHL
Protocol: as §1

[4] = biological target: Plasmin (Homo sapiens, UniProt P00747); experiment: Specificity of the inhibition: plasmin; assay type: biochemical; conditions: for inhibition at 10 µM: 10^-5 M; for inhibition at 0.1 µM: 10^-7 M
Protocol: as §1

[5] = biological target: T3, Trypsin (Bos taurus, UniProt P00760); experiment: Specificity of the inhibition: trypsin; assay type: biochemical; conditions: for inhibition at 10 µM: 10^-5 M; for inhibition at 0.1 µM: 10^-7 M
T3 sequence (P00760 24-246): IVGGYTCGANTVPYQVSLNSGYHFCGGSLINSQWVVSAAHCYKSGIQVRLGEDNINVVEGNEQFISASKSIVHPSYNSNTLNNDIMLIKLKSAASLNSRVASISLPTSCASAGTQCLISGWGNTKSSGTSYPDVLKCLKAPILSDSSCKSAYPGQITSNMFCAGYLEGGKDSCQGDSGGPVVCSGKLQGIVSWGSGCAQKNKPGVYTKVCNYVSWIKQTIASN
Protocol: as §1

[6] = biological target: T4, Porcine collagenase (Sus scrofa, UniProt P21692); experiment: Specificity of the inhibition: porcine collagenase; assay type: biochemical; conditions: for inhibition at 10 µM: 10^-5 M; for inhibition at 0.1 µM: 10^-7 M
T4 construct: isolated from synovial cells in culture; endogenous in cells; host or cells: porcine synovial cells in culture
T4 sequence (P21692 100-469): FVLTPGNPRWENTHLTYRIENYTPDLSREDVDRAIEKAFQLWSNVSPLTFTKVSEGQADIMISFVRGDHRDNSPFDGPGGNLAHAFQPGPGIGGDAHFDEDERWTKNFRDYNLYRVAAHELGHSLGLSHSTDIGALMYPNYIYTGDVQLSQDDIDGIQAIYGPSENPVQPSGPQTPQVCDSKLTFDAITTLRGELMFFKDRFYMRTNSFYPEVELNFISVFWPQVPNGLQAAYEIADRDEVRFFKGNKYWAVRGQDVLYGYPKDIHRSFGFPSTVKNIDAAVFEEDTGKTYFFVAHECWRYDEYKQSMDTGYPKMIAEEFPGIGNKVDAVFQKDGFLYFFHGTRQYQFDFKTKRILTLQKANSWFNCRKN
Protocol: (§2) The anticollagenase activity of the compounds according to the present invention was determined on synovial collagenase of porcine or human origin, isolated from synovial cells in culture according to the procedure described by Cawston and Barrett (Cawston and Barrett (1979), Anal. Biochem. 99, 340-345). The collagenase was incubated at 37° C. with radiolabeled collagen and its activity was determined by the release of the soluble peptides produced by enzymatic degradation of the collagen. The inhibitory concentration IC50 for each compound was determined by measuring the activity of the enzyme in the presence of the inhibitor at a concentration of between 10^-5 and 10^-8 M.
as §1

[7] = biological target: T5, Human collagenase (Homo sapiens, UniProt P03956); experiment: Specificity of the inhibition: human collagenase; assay type: biochemical; conditions: for inhibition at 10 µM: 10^-5 M; for inhibition at 0.1 µM: 10^-7 M
T5 construct: isolated from synovial cells in culture; endogenous in cells; host or cells: human synovial cells in culture
T5 sequence (P03956 100-469): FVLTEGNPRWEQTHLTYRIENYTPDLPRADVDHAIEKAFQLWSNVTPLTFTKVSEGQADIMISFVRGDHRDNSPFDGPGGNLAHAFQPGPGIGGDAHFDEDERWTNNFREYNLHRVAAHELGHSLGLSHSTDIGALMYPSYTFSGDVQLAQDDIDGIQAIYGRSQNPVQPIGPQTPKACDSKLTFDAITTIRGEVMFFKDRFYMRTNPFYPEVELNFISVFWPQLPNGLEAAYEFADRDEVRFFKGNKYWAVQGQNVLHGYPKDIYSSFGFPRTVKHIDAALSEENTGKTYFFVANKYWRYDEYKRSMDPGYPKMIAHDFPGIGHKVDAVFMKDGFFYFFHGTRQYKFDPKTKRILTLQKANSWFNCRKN
Protocol: as §2, §1

[8] = biological target: T6, Papain (Carica papaya, UniProt P00784); experiment: Specificity of the inhibition: papain; assay type: biochemical; conditions: for inhibition at 10 µM: 10^-5 M; for inhibition at 0.1 µM: 10^-7 M
T6 sequence (P00784 134-345): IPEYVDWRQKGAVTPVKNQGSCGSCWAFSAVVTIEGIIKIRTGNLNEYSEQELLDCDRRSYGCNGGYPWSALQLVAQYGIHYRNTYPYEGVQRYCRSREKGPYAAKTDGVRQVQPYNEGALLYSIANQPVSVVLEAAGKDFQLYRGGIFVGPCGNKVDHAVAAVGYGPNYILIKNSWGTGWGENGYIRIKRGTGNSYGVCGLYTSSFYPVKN
Protocol: as §1

[9] = biological target: α-Chymotrypsin (Bos taurus, UniProt P00766); experiment: Specificity of the inhibition: α-chymotrypsin; assay type: biochemical; conditions: for inhibition at 10 µM: 10^-5 M; for inhibition at 0.1 µM: 10^-7 M
Protocol: as §1

[10] = biological target: Pepsin (Sus scrofa, UniProt P00791); experiment: Specificity of the inhibition: pepsin; assay type: biochemical; conditions: for inhibition at 10 µM: 10^-5 M; for inhibition at 0.1 µM: 10^-7 M
Protocol: as §1

[11] = biological target: Thrombin (Homo sapiens, UniProt P00734); experiment: Specificity of the inhibition: thrombin; assay type: biochemical; conditions: for inhibition at 10 µM: 10^-5 M; for inhibition at 0.1 µM: 10^-7 M
Protocol: as §1

[12] = tested on: bone resorption; experiment: Bone resorption model in isolated organ (Ca++ release); assay type: cell-based
Description: Anticollagenase activity has also been determined in a bone resorption model described by Delaisse et al. (Delaisse et al. (1985), Biochem. Biophys. Res. commun., 133, 483-490). This model, which utilizes the degradation of cartilage and bone in an isolated organ, is more physiological than direct determination of the enzyme activity in vitro. The results of the tests are collated in Table II; the same inhibitors are found to be active in both systems.

[13] = biological target: synovial collagenase of porcine or human origin; experiment: Anticollagenase activity: release of soluble peptides from radiolabeled collagen; assay type: biochemical
Protocol: as §2
Representative results of these tests are given for the compounds according to the invention in Table I.

[14] = Table I, % inhibition 50, read-out: Concentration for 50 % inhibition (IC50), anticollagenase activity

Chain of ACE (P12821 30-1306, species assumed): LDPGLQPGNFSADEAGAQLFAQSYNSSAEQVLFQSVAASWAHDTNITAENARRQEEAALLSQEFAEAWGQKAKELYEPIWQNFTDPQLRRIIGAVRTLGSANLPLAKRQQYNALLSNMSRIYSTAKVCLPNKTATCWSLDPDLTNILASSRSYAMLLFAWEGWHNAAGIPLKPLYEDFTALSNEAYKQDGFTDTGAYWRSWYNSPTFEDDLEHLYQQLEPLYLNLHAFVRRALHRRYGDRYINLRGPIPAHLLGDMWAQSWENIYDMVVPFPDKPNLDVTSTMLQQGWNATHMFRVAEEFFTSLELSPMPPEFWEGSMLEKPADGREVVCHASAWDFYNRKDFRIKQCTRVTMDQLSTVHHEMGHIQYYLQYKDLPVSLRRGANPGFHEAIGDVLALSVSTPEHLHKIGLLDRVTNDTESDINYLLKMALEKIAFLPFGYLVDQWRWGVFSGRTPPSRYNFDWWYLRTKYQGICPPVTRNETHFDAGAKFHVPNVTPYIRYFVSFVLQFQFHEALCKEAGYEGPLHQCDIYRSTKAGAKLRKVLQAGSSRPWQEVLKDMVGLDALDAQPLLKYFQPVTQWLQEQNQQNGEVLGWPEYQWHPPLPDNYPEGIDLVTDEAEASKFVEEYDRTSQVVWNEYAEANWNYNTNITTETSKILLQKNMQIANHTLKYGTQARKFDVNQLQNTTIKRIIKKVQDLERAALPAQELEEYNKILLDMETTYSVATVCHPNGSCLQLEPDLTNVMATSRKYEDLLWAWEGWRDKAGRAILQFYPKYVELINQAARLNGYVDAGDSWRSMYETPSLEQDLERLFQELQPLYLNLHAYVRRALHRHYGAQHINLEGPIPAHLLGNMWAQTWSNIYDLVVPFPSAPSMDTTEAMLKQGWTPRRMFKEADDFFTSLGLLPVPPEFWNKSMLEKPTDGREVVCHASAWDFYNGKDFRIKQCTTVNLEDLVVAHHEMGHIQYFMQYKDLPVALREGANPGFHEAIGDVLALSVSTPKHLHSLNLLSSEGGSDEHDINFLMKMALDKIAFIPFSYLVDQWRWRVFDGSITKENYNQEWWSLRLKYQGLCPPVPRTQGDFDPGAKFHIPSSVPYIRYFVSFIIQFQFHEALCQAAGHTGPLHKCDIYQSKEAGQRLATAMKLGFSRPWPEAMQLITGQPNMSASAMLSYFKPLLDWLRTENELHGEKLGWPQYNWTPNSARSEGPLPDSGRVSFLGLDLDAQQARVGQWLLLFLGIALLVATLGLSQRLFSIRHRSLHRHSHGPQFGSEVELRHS
Chain of Plasmin (P00747 581-810 limits assumed, species assumed): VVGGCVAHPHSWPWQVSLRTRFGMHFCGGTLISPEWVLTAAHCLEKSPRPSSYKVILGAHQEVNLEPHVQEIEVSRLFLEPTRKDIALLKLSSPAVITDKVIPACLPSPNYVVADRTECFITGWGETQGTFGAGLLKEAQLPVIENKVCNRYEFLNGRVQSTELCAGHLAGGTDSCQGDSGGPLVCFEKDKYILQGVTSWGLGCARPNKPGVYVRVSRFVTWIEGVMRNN
Chain of Plasmin (P00747 97-580 partner limits assumed, species assumed): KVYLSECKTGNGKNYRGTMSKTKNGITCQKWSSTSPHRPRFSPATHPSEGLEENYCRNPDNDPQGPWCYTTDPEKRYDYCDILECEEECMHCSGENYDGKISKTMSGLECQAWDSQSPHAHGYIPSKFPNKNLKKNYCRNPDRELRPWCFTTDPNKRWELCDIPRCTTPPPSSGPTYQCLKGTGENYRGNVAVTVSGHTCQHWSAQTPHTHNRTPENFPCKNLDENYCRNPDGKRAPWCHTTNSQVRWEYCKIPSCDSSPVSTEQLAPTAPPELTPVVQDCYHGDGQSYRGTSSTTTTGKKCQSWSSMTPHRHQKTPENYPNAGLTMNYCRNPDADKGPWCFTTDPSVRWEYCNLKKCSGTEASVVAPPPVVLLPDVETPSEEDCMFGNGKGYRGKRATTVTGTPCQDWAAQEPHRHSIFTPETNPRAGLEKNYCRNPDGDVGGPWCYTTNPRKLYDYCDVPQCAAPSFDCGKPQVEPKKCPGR
Chain of Pepsin (P00791 60-385): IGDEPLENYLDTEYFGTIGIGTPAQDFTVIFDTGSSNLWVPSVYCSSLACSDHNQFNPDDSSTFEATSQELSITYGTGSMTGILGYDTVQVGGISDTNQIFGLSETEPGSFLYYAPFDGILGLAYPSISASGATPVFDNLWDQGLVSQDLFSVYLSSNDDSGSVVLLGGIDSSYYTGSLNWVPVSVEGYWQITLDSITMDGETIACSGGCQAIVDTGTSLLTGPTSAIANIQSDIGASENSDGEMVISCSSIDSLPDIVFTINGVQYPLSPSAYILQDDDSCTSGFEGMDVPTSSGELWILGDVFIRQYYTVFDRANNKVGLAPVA

Row | Compound | inhibition at 10 µM [1] [%] | inhibition at 0.1 µM [1] [%] | inhibition at 10 µM [2] [%] | inhibition at 0.1 µM [2] [%] | inhibition at 10 µM [3] [%] | inhibition at 0.1 µM [3] [%] | inhibition at 10 µM [4] [%] | inhibition at 0.1 µM [4] [%] | inhibition at 10 µM [5] [%] | inhibition at 0.1 µM [5] [%] | inhibition at 10 µM [6] [%] | inhibition at 0.1 µM [6] [%] | inhibition at 10 µM [7] [%] | inhibition at 0.1 µM [7] [%] | inhibition at 10 µM [8] [%] | inhibition at 0.1 µM [8] [%] | inhibition at 10 µM [9] [%] | inhibition at 0.1 µM [9] [%] | inhibition at 10 µM [10] [%] | IC50 [13, 14] [nM] | further results
1 | CC(C)CC(CC(=O)NO)C(=O)N[C@H](C(=O)NCc1ccccc1)C(C)C (single isomer, unassigned) [Example 2, N-Benzyl-Nα-(N-hydroxy-2-isobutylsuccinamoyl)-L-valinamide] | 40 | 4 | 0 | 0 | 0 | 0 | 0 | 0 | 0 | 0 | 100 | 52 | 100 | 30 | 5 | 0 | 0 | 0 | 19 |  | inhibition at 0.1 µM [10]: 0%; inhibition at 10 µM [11]: 5%; inhibition at 0.1 µM [11]: 0%
2 | CC(C)CC(CC(=O)NO)C(=O)N[C@H](C(=O)NCc1ccccc1)C(C)C (single isomer, unassigned) [Example 2, isomer A, N-Benzyl-Nα-(N-hydroxy-2-isobutylsuccinamoyl)-L-valinamide] |  |  |  |  |  |  |  |  |  |  |  |  |  |  |  |  |  |  |  |  | % protection against bone resorption (Ca++ release) ([12]; 8 μM): 0%; % protection against bone resorption (Ca++ release) ([12]; 25 μM): 0%; IC50 ([13]; Table II, read-out: collagenase inhibition IC50): 16000 nM
3 | CC(C)CC(CC(=O)NO)C(=O)N[C@H](C(=O)NCc1ccccc1)C(C)C (single isomer, unassigned) [Example 3, N-Benzyl-Nα-(N-hydroxy-2-isobutylsuccinamoyl)-L-valinamide, B form] |  |  |  |  |  |  |  |  |  |  |  |  |  |  |  |  |  |  |  | 35 | % protection against bone resorption (Ca++ release) ([12]; 8 μM, listed as Example 2, isomer B): 90-100%; % protection against bone resorption (Ca++ release) ([12]; 25 μM, listed as Example 2, isomer B): 90-100%; IC50 ([13]; Table II, listed as Example 2, isomer B, read-out: collagenase inhibition IC50): 35 nM
4 | CC(C)CC(CC(=O)NO)C(=O)N[C@H](C(=O)NCc1ccc(C(F)(F)F)cc1)C(C)C (single isomer, unassigned) [Example 4, N-(4-Trifluoromethylbenzyl)-Nα-(N-hydroxy-2-isobutylsuccinamoyl)-L-valinamide, B form] |  |  |  |  |  |  |  |  |  |  |  |  |  |  |  |  |  |  |  | 80 | 
5 | CC(C)CC(CC(=O)NO)C(=O)N[C@H](C(=O)NCCc1ccccc1)C(C)C (single isomer, unassigned) [Example 5, N-Phenethyl-Nα-(N-hydroxy-2-isobutylsuccinamoyl)-L-valinamide, B form] |  |  |  |  |  |  |  |  |  |  |  |  |  |  |  |  |  |  |  | 75 | 
6 | CC(C)CC(CC(=O)NO)C(=O)N[C@H](C(N)=O)C(C)C (stereo partly drawn) [Example 1, Nα-(N-hydroxy-2-isobutylsuccinamoyl)-L-valinamide] | 4 | 0 | 0 | 0 | 0 | 0 | 0 | 0 | 0 | 0 | 100 | 23 | 100 | 12 | 5 | 0 | 0 | 0 | 19 | 320 | inhibition at 0.1 µM [10]: 0%; inhibition at 10 µM [11]: 0%; inhibition at 0.1 µM [11]: 0%
